Read-outs that look alike come from different tables or passages of the source.
How the values were obtained:
[1] = Experimental aqueous solubility (UV spectrophotometry of saturated solutions); format: physicochemical; details: for solubility at 24 h: water (saturated solution)
Protocol: Experimental aqueous solubility was determined following a previously described procedure. Briefly, calibration curves were obtained by means of UV spectrometry for each compound, and their respective linear equations were obtained. Afterwards, saturated solutions of each compound were obtained, and they were diluted until the concentration fell within the calibration range, thus enabling the correct concentration interpolation. […] A detailed description of this process can be found in Supplementary Materials.
The aqueous solubility of the tested organic Se compounds was experimentally determined following a previously described procedure. The chosen assay used UV spectrophotometry to estimate the concentration of the saturated solution with known dilutions of the tested compound at room temperature (20° C) after 24 h. The concentrations of the solutions were used to obtain the interpolation of the measured UV absorbance of the saturated solution dilution from the calibration curve drawn using solutions previously prepared in methanol/water mixtures. […]
1.2. Determination of the aqueous solubility
1.2.1. Preparation of the saturated solutions of tested compounds
The saturated solutions (2 mL) of the tested Se-compounds in water were prepared at H2O boiling point in small glass vials. Later, vials were covered to avoid evaporation and all solutions were left 1 day at 20° C, after when every solution was filtered. Finally, the concentration of the Se-compounds was determined through UV spectrophotometric measurements. To estimate correctly the concentration, calibration curves with known concentrations were prepared, and the saturated solutions were diluted till reaching a point within the range of the respective calibration curve.
1.2.2. Preparation of the calibration curve stock solutions for UV spectrometry The stock solutions of 10 selenoesters (EDA-26, EDA-71, EDA-73, EDA-74, EDA-93, […]
were prepared in methanol (99% purity) at a 1 g/L concentration. Additionally, calibration solutions in the range from 0.0005 to 0.02 [g/L] were prepared for each Se-compound and their UV absorbance was determined to draw the corresponding calibration curve.
1.2.3. Sample preparation of saturated filtrates for UV spectrometry
The 100-fold diluted solutions of the saturated filtrates of the Se-compounds were prepared in the anhydrous methanol (99% purity), by addition of 70 μL of the correspond-ing methanol stock solution over anhydrous methanol till filling a 7 mL final volume. Af-terwards, the absorption of abovementioned solutions was determined. Finally, the solu-tions were diluted with 99% methanol from 1 to 160 times, in function of the compound.
The aim of this procedure was to determine the concentration of the Se-compounds […]
through the controlled dilution of the solution with unknown concentration till its UV absorbance fell within the range of the calibration solutions.
1.2.4. Solubility estimation
For each compound, the calibration curve was calculated through the UV absorbance measurements and the linear equation of the linear part of the curve was calculated. The absorbance of the dilution was then interpolated in this range, finding its concentration.
To determine the solubility, this concentration was multiplied by the dilution factor, which was specific for each derivative. This action enabled the estimation of the in vitro solubility of the tested derivatives in saturated solutions. All the solubility values were the average value obtained from the 3 independent measurements.
1.3. PAMPA test: membrane permeability evaluation.
The passive transport and the membrane absorption of 5 selected selenocompounds (EDA-58, EDA-71, EDA-119, EDA-122, EDA-A6) were evaluated in the in vitro Parallel Artificial Membrane Permeability Assay (PAMPA). The protocol of the permeability assay was similar to the ones previously described.
1.3.1. Stock solutions and sample preparation for PAMPA test […]

[2] = Chemical stability in acidic and alkaline environments (TLC-monitored); format: physicochemical; details: TLC at 10 min, 1, 2, 3, 24, 48 h; for chemical stability in the alkaline environment: 2 mg/mL in methanol + 10% NaOH 1:1; for chemical stability in the acidic environment: 2 mg/mL in methanol + 10% HCl 1:1
Protocol: The chemical stability of the new organic selenocompounds was evaluated in two different environments (acidic and alkaline). Firstly, tested selenocompounds were dissolved in pure anhydrous methanol to obtain a stock solution with a concentration of 2 mg/mL. Then, the solution was divided into two equal parts. A 10% solution of HCl was added in 1:1 proportion to the first part, and a 10% solution of NaOH was added to the second part in the same 1:1 proportion. Then, the stability of the tested Se compounds, either in the acidic or in the basic conditions, was TLC-monitored at specific time periods: 10 min and 1, 2, 3, 24, and 48 h. The following eluents were used: (i) methylene chloride for EDA-26, EDA-73, EDA-74, EDA-93, EDA-109, EDA-119, EDA-120, and EDA-122; a mixture of n-hexane and ethyl acetate in a 4:1 ratio for EDA-58; (ii) chloroform for EDA-71 and EDA-A6; and (iii) acetone for EDA-117.
In the next step of the experiments, the chemical stability of 11 selenoesters (EDA-26, EDA-71, EDA-73, EDA-74, EDA-58, EDA-93, EDA-109, EDA-117, EDA-119, EDA-120 and EDA-122) and the selenoanhydride EDA-A6 in acidic and alkaline environments was evaluated by the use of a previously described method. Unfortunately, it was not possible to estimate the chemical stability of the compounds EDA-46, EDA-53, EDA-56, and […] due to their physicochemical properties: they were liquid at room temperature in the form of an oil, which is not miscible with water.

[3] = 20 °C, water, thermodynamic from solid, logSm calculated based on solubility Sm (mol/L), read-out: Experimental Aqueous Solubility logSm (converted)
[4] = thermodynamic from solid, water, room temperature (20° C), after 24 h, average of 3, read-out: Experimental Aqueous Solubility

Row | SMILES | solubility at 24 h [1, 3] [µM] | solubility at 24 h [1, 4] [µg/mL] | chemical stability in the alkaline environment [2] | chemical stability in the acidic environment [2] | fold less soluble than the most soluble Se compound (EDA-117) ([1]; experimental solubility) | solubility at 24 h ([1]; logSm calculated based on solubility Sm (mol/L), read-out: Experimental Aqueous Solubility logSm (converted)) [µM]
1 | C[Se]C(=O)c1cccc(C(=O)[Se]C)n1 [EDA-119, Se,Se-dimethyl pyridine-2,6-bis(carboselenoate)] | 427 | 137 |  |  |  | 
2 | O=C1[Se]C(=O)c2ccccc21 [EDA-A6, benzo[c]selenophene-1,3-dione] | 3630 | 758 | unstable |  |  | 
3 | COC(=O)C[Se]C(=O)c1cc(OC)c(OC)c(OC)c1 [EDA-26, methyl 2-((3,4,5-trimethoxybenzoyl)selanyl)acetate] | 1100 | 380 | totally unstable | stable till the end of the analysis (48 h) |  | 
4 | CC(=O)C[Se]C(=O)c1ccc(Cl)cc1 [EDA-71, Se-(2-oxopropyl) 4-chlorobenzoselenoate] | 479 | 132 | unstable | totally unstable |  | 
5 | C[Se]C(=O)c1cccc(C(=O)[Se]C)c1 [EDA-120, Se,Se-dimethyl benzene-1,3-bis(carboselenoate)] | 81.3 | 26 | totally unstable | stable till the end of the analysis (48 h) |  | 
6 | C[Se]C(=O)c1ccc(C(=O)[Se]C)s1 [EDA-122, Se,Se-dimethyl thiophene-2,5-bis(carboselenoate)] | 95.5 | 31 |  |  |  | 
7 | C[Se]C(=O)c1ccc(C(=O)[Se]C)cc1 [EDA-109, Se,Se-dimethyl benzene-1,4-bis(carboselenoate)] | 87.1 | 28 | totally unstable | stable till the end of the analysis (48 h) |  | 
8 | O=C(C[Se]C(=O)c1ccccc1)Oc1ccccc1 [EDA-93, phenyl 2-(benzoylselanyl)acetate] | 69.2 | 22 | unstable | unstable |  | 
9 | COc1cc(OC)cc(C(=O)[Se]CC(=O)C(C)(C)C)c1 [EDA-74, Se-(3,3-dimethyl-2-oxobutyl) 3,5-dimethoxybenzoselenoate] | 55 | 19 | unstable | stable till the end of the experiment (48 h) |  | 
10 | CC(C)(C)C(=O)C[Se]C(=O)c1ccc(Cl)cc1 [EDA-73, Se-(3,3-dimethyl-2-oxobutyl) 4-chlorobenzoselenoate] | ~3.16 | ~1 | unstable | stable till the end of the experiment (48 h) | more than 1000 fold | 3.16
